Laboratory results: ChEMBL document CHEMBL5360649, “Potential Broad-Spectrum Antimicrobial, Wound Healing, and Disinfectant Cationic Peptide Crafted from Snake Venom” (J Med Chem, 2023)
Active and inactive are the calls of the source. No cut-off for these calls is given here.

Legend:
[1] = Cytotoxicity against human WI-38 cells assessed as cell viability at 25 uM incubated for 24 hrs by MTT assay relative to control; type: toxicity, cell-based; settings: read-out: Activity
Escherichia coli [2] = assay: Antibacterial activity against Escherichia coli assessed as inhibition of bacterial growth incubated for 0.5 to 8.5 hrs by microtiter plate reader analysis; type: functional, organism-based; settings: dose 1.25-40 µM, time 0.5-8.5 hrs
Klebsiella pneumoniae [3] = assay: Antibiofilm activity against Klebsiella pneumoniae assessed as biofilm clearance incubated for 24 hrs by Congo red dye based fluorescence analysis; type: functional, organism-based
Pseudomonas aeruginosa [4] = assay: Antibiofilm activity against Pseudomonas aeruginosa assessed as biofilm eradication at 1 times of MIC incubated for 24 hrs by CV staining based analysis relative to control; type: functional
Staphylococcus aureus [5] = assay: Antibiofilm activity against methicillin-resistant Staphylococcus aureus in the presence of Na+; type: functional, organism-based
[6] = Hemolytic activity in human RBC assessed as hemolysis at 25 uM incubated for 30 mins under shaking condition by multiplate reader analysis relative to control; type: toxicity, cell-based, Erythrocyte; settings: human red blood cells (RBC), read-out: Activity
Cell membrane [7] = assay: Induction of outer membrane permeabilization in methicillin-resistant Staphylococcus aureus at 0.5 to 1 times of MIC incubated for 5 to 20 mins by fluorescence based NPN uptake assay; type: subcellular; settings: time 5-20 min
Cell membrane [8] = assay: Induction of outer membrane permeabilization in Klebsiella pneumoniae at 0.5 to 1 times of MIC incubated for 5 to 20 mins by fluorescence based NPN uptake assay; type: subcellular; settings: time 5-20 min
[9] = Stability in human serum assessed as intact peptide remaining at 1 mM measured after 4 hrs by HPLC analysis; type: ADME, cell-free; settings: read-out: Stability
Staphylococcus aureus [10] = assay: Antibiofilm activity against preformed biofilm in methicillin-resistant Staphylococcus aureus assessed as decrease in cell viability at 0.5 times of MIC incubated overnight by MTT assay relative to control; type: functional
Pseudomonas aeruginosa [11] = assay: Antibacterial activity against Pseudomonas aeruginosa assessed as inhibition of bacterial growth at 1.25 to 40 uM incubated for 8 hrs by microtiter plate reader analysis; type: functional, organism-based; settings: dose 1.25-40 µM
Pseudomonas aeruginosa [12] = assay: Antibacterial activity against patient-derived Pseudomonas aeruginosa assessed as inhibition of bacterial growth at 25 to 100 uM incubated overnight by spotting assay; type: functional, organism-based; settings: dose 25-100 µM
Cell membrane [13] = assay: Induction of cytoplasmic membrane depolarization in Escherichia coli assessed as increase in fluorescence intensity at 0.5 to 1 times of MIC by DiSC3-5 dye based fluorescence method; type: subcellular
Klebsiella pneumoniae [14] = assay: Bactericidal activity against Klebsiella pneumoniae ATCC BAA-1705 assessed as reduction in bacterial growth incubated for 24 hrs by Mueller Hinton Agar based plate analysis; type: functional
RAW264.7 = assay: Antiinflammatory activity in LPS-induced mouse RAW264.7 cells assessed as increase in TGF-beta1 expression at 5 to 10 uM incubated for 24 hrs by radioimmunoprecipitation based dot-plot analysis; type: functional, cell-based; settings: dose 5-10 µM
Rattus norvegicus = organism: Rattus norvegicus; assay: Induction of wound healing in surgically-induced Albino Wistar rat wound model assessed as reduction in inflammatory activity at 10 uM measured after 11 days by H&E staining based analysis; type: functional; settings: time 11.0 day
Staphylococcus aureus [15] = assay: Antibacterial activity against patient-derived methicillin-resistant Staphylococcus aureus assessed as inhibition of bacterial growth incubated for 24 hrs by CLSI protocol based microdilution method; type: functional
[16] = Induction of wound healing in surgically-induced Albino Wistar rat wound model inoculated with methicillin-resistant Staphylococcus aureus assessed as decrease in mean open wound percentage at 10 uM measured after 11 days by photographic analysis (reference value: 32.25%); type: functional; parameters: scale not given: the % may be the effect or the level left; settings: time 11 day
U-937 = assay: Immunomodulatory activity in human U-937 cells assessed as reduction in LPS-induced IL-6 expression level incubated for 24 hrs by radioimmunoprecipitation based dot-plot analysis; type: functional, cell-based; settings: dose 5-10 µM
Staphylococcus aureus [17] = assay: Induction of morphological changes in methicillin-resistant Staphylococcus aureus at MIC concentration incubated for 6 hrs by SEM analysis; type: functional, organism-based
Klebsiella pneumoniae [18] = assay: Antibiofilm activity against Klebsiella pneumoniae assessed as eradication of preformed biofilm at 1 times of MIC incubated for 24 hrs by CV staining based analysis relative to control; type: functional
Klebsiella pneumoniae [19] = assay: Antibacterial activity against carbapenem resistant Klebsiella pneumoniae ATCC BAA-1705 assessed as inhibition of bacterial growth incubated for 8 hrs at 1.25 to 40 uM by microtiter plate reader analysis; type: functional, organism-based; settings: dose 1.25-40 µM
Escherichia coli [20] = assay: Induction of morphological changes in Escherichia coli assessed as membrane damage at MIC concentration incubated for 60 mins by SEM analysis; type: functional, organism-based
Escherichia coli [21] = assay: Antibacterial activity against Escherichia coli assessed as inhibition of bacterial growth at 1.25 to 40 uM incubated for 8 hrs by microtiter plate reader analysis; type: functional, organism-based; settings: dose 1.25-40 µM
Cell membrane [22] = assay: Induction of cytoplasmic membrane depolarization in methicillin-resistant Staphylococcus aureus assessed as increase in fluorescence intensity at 0.5 to 1 times of MIC by DiSC3-5 dye based fluorescence method; type: subcellular
Lipopolysaccharide (LPS) = assay: Induction of Escherichia coli O111:B4 Lipopolysaccharide aggregate degradation at 40 uM incubated for 4 hrs by ESI-LC/MS analysis
Escherichia coli [23] = assay: Induction of morphological changes in Escherichia coli at MIC concentration incubated for 6 hrs by SEM analysis; type: functional, organism-based
Klebsiella pneumoniae [24] = assay: Induction of morphological changes in carbapenem resistant Klebsiella pneumoniae ATCC BAA-1705 at MIC concentration incubated for 60 mins by SEM analysis; type: functional, organism-based
Staphylococcus aureus [25] = assay: Induction of morphological changes in methicillin-resistant Staphylococcus aureus assessed as membrane damage at MIC concentration incubated for 60 mins by SEM analysis; type: functional, organism-based
Escherichia coli [26] = assay: Induction of morphological changes in Escherichia coli at MIC concentration incubated for 6 hrs by AFM analysis; type: functional, organism-based
Escherichia coli [27] = assay: Induction of morphological changes in Escherichia coli assessed as membrane perturbation at MIC concentration incubated for 60 mins by SEM analysis; type: functional, organism-based
Cell membrane [28] = assay: Induction of inner membrane permeabilization in Escherichia coli assessed as increase in fluorescence at 0.5 to 1 times of MIC incubated for 60 mins by PI staining based fluorescence analysis; type: subcellular
Escherichia coli [29] = assay: Induction of morphological changes in Escherichia coli at MIC concentration incubated for 60 mins by SEM analysis; type: functional, organism-based
Pseudomonas aeruginosa [30] = assay: Induction of morphological changes in Pseudomonas aeruginosa at MIC concentration incubated for 6 hrs by AFM analysis; type: functional, organism-based
Escherichia coli [31] = assay: Induction of morphological changes in Escherichia coli assessed as cell blebbing at MIC concentration incubated for 60 mins by SEM analysis; type: functional, organism-based
Escherichia coli [32] = assay: Antibacterial activity against Escherichia coli ATCC CRM-11229 assessed as inhibition of bacterial growth incubated for 24 hrs by CLSI protocol based microdilution method; type: functional
Escherichia coli [33] = assay: Induction of morphological changes in Escherichia coli assessed as cellular destruction at MIC concentration incubated for 6 hrs by SEM analysis; type: functional, organism-based
Pseudomonas aeruginosa [34] = assay: Antibacterial activity against Pseudomonas aeruginosa assessed as cell division block by measuring bacterial filamentation at 0.5 to 1 times of MIC incubated for 30 mins by SYTO9/PI staining based fluorescence microscopic analysis; type: functional, organism-based
Klebsiella pneumoniae [35] = assay: Antibacterial activity against carbapenem resistance Klebsiella pneumoniae ATCC BAA-1705 assessed as inhibition of bacterial growth incubated for 0.5 to 8.5 hrs by microtiter plate reader analysis; type: functional, organism-based; settings: dose 1.25-40 µM, time 0.5-8.5 hrs

## H-FLPIIKWVKKFFWRWR-OH
[1]
  viability at 24 h, 25 µM: 88.3%
Escherichia coli [2]
  Activity: Dose-Dependent Effect
Klebsiella pneumoniae [3]
  Activity: Dose-Dependent Effect
Pseudomonas aeruginosa [4]
  Activity: <=72.73%
Staphylococcus aureus [5]
  Activity: Active
[6]
  hemolysis at 0.5 h, 25 µM: 20.4%
Cell membrane [7]
  Activity: Active
Cell membrane [8]
  Activity: Active
[9]
  remaining at 4 h, 1000 µM: 82.6%
Staphylococcus aureus [10]
  Activity: 62.7%
Pseudomonas aeruginosa [11]
  Activity: Active
Pseudomonas aeruginosa [12]
  Activity: Active
Cell membrane [13]
  Activity: Active
Klebsiella pneumoniae [14]
  MBC: 11 µM
RAW264.7
  Activity: Active
Rattus norvegicus
  Activity: Active
Staphylococcus aureus [15]
  MIC: 6 µM
[16]
  Activity: 17.22%
U-937
  Activity: Dose-Dependent Effect
Staphylococcus aureus [17]
  Activity: Active
Klebsiella pneumoniae [18]
  Activity: ~88%
Klebsiella pneumoniae [19]
  Activity: Active
Escherichia coli [20]
  Activity: Active
Escherichia coli [21]
  Activity: Active
Cell membrane [22]
  Activity: Active
Lipopolysaccharide (LPS)
  Activity: Active
Escherichia coli [23]
  Activity: Active
Klebsiella pneumoniae [24]
  Activity: Active
Staphylococcus aureus [25]
  Activity: Active
Escherichia coli [26]
  Activity: Active
Escherichia coli [27]
  Activity: Active
Cell membrane [28]
  Activity: Active
Escherichia coli [29]
  Activity: Active
Pseudomonas aeruginosa [30]
  Activity: Active
Escherichia coli [31]
  Activity: Active
Escherichia coli [32]
  MIC: 3.5 µM
Escherichia coli [33]
  Activity: Active
Pseudomonas aeruginosa [34]
  Activity: Active
Klebsiella pneumoniae [35]
  Activity: Dose-Dependent Effect
